# Assay results: US20240299414A1, “SUBCUTANEOUS OR INTRAMUSCULAR INJECTION FORMULATIONS OF ILOPROST” (EICOS SCIENCES, INC., priority 2020, published 2024)
# What was measured:
# [1] = Heat exposure study (sterilization cycles); type: physicochemical; conditions: pH about 8.0-8.1 versus about 7.0-7.2; light and heat exposure studies
# Method: Approximately 200 mL of the prepared formulation was filtered through a Millipak 200, 0.22μ filter for light exposure study and heat exposure study (100 mL for each study).
# Heat Exposure Study: Approximately 1.1 mL of formulation was placed each into 40 clean 2 cc vials and the vials were capped with 13 mm caps. One set of 20 vials were wrapped with autoclave tape, placed into an autoclave bag and labeled as B1. Another set of 20 vials were wrapped with autoclave tape, placed into an autoclave bag and labeled as B2. All vials were exposed through one sterilization cycle at 121° C. for approximately 30 minutes, then B1 vials were analyzed for pH and assayed by HPLC. The B2 vials were then exposed to a second sterilization cycle at ≥121° C. for ≥15 minutes. The B2 vials were analyzed for pH and assayed by HPLC for iloprost and impurities.
# [2] = tested on: symptomatic Raynaud's Phenomenon attacks in subjects with Systemic Sclerosis; assay: Multicenter double-blind randomized placebo-controlled study of intravenous iloprost, efficacy by ePRO diary; type: in vivo, human; conditions: for Subgroup comparison of prior vs after, LS mean difference in change (SE) of treatment difference: randomized prior to vs after 3 Jun. 2019
# From the text: This was a multicenter, double-blind, randomized, placebo-controlled study to provide an initial evaluation of the effect of iloprost on the symptomatic relief of RP attacks in subjects with SSc. As a pilot study, it was not powered to provide a definitive estimate of the effect of iloprost. Importantly, this study tested the feasibility of collecting the study endpoints and logistics of study operations that included, among other things, an electronic patient-reported outcomes (ePRO) diary for the evaluation of subject response to the treatment, as well as the infusion workflow for this multiday treatment. Subjects were allowed to continue receiving stable standard of care therapies for the management of symptomatic RP (e.g., calcium channel blockers, angiotensin-converting enzyme inhibitors, statins, fluoxetine, and low-dose acetylsalicylic acid) or may have participated without the use of background standard of care therapies. The study consisted of an up to 30-day screening period during which subjects completed a daily ePRO diary to record information regarding all symptomatic RP attacks (e.g., severity of symptoms, duration, and hand function). […] The baseline ePRO diary completion period may have been extended beyond 10 days in order to accommodate the preferred Monday through Friday dosing schedule. The ePRO symptomatic RP attack data from this time period were used for the calculation of the baseline frequency of symptomatic RP attacks. […] Randomization was stratified based on the use of phosphodiesterase inhibitors at screening. Study drug administration began on Day 1, and subjects received study drug for 5 consecutive days (e.g., Monday through Friday) as an IV infusion over 6 hours each day via a peripheral line (NovaCath™ Integrated IV Catheter System) or a peripherally inserted central catheter using an infusion pump. […] On Day 1, study drug was initiated at a starting dose of 0.5 ng/kg/min, and dose increases occurred every 30 minutes (±5 minutes) in increments of 0.5 ng/kg/min up to 2.0 ng/kg/min or the individual tolerated dose. If dose-limiting adverse events (e.g., headache, flushing, jaw pain, myalgia, nausea, or vomiting) occurred that could not be tolerated by the subject, or if the subject experienced symptomatic hypotension, then the dose was reduced in a step-wise manner by 0.5 ng/kg/min every 30 minutes (±5 minutes) until a tolerated dose was determined or the infusion was stopped until the symptoms resolved at which point the study drug was reinitiated at a previously tolerated dose. If symptomatic hypotension or a dose-limiting adverse event occurred during administration of iloprost at the starting dose (i.e., 0.5 ng/kg/min), the infusion was reduced to 0.25 ng/kg/min. […] Blood pressure and heart rate were monitored 15 minutes (±5 minutes) prior to and after all dose changes. The maximum tolerated dose was maintained for the remaining 6-hour daily period. At the end of the 6-hour infusion period, the dose was stopped. Subjects were to be monitored for up to 1 hour after completion of study drug infusion (i.e., vital signs were obtained 15 minutes [+5 minutes] and 1 hour [+15 minutes] after completion of the infusion). […] Vital signs were measured prior to study drug administration and at 15 minutes (±5 minutes) prior to and after all dose changes during the infusion. Additionally, vital signs were monitored at 15 minutes (±5 minutes) and 1 hour (±15 minutes) after completion of the 6-hour infusion. Subjects were contacted via telephone on Day 8 to ensure they resumed completion of the daily ePRO diary; subjects completed the ePRO diary from Day 8 through Day 21. On Day 22, subjects returned to the clinic for post-treatment evaluations. A follow-up visit occurred 30 days after the last administration of study drug (Day 35). Symptomatic Raynaud's Phenomenon attacks: […] The attack was considered over when the color changed back to pre-attack color (normal) and the symptoms returned to the subject's pre-attack level. […]
# [3] = baseline to double-blind endpoint
# [4] = subgroup randomized after 3 Jun. 2019, N = 9
# [5] = subgroup randomized prior to 3 Jun. 2019, n = 8
smiles,measurement,setting,value
"CC#CCC(C)[C@H](O)/C=C/[C@@H]1[C@H]2C/C(=C/CCCC(=O)O)C[C@H]2C[C@H]1O (stereo partly drawn) [Iloprost, (5E)-5-[(3aS,4R,5R,6aS)-5-hydroxy-4-[(E,3S)-3-hydroxy-4-methyloct-1-en-6-ynyl]-3,3a,4,5,6,6a-hexahydro-1H-pentalen-2-ylidene]pentanoic acid]",stability of iloprost versus pH,[1],more stable at higher pH of about 8.0-8.1
same,"Average overall severity of symptomatic RP attacks, LS mean difference in change vs placebo (SE)",[2]; 11-point NRS,−0.47 (0.604)
same,"Average overall severity of symptomatic RP attacks, Double-blind endpoint, Mean (SD)","[2]; 11-point NRS, Days 8 to 21, N = 17",3.39 (2.169)
same,"Change from baseline in average overall severity of symptomatic RP attacks, LS mean (SE)","[2]; 11-point NRS, N = 17",−2.12 (0.439)
same,"Average overall severity of symptomatic RP attacks, Baseline, Mean (SD)","[2]; 11-point NRS, before treatment, N = 17",5.30 (1.818)
same,"Change from baseline in weekly frequency of symptomatic RP attacks, LS mean (SE)","[2]; ANCOVA, baseline to double-blind endpoint, N = 17",−15.09 (2.961)
same,"Weekly frequency of symptomatic RP attacks, LS mean difference in change vs placebo (SE)","[2]; ANCOVA, iloprost vs placebo, N = 17 per group",−0.77 (4.047)
same,"Average weekly duration of symptomatic RP attacks, Double-blind endpoint, Mean (SD)","[2]; Days 8 to 21, N = 17",345.82 (402.713) minutes
same,"Weekly frequency of symptomatic RP attacks, Double-blind endpoint, Mean (SD)","[2]; Days 8 to 21 after IV infusion 6 h/day for 5 days, up to 2.0 ng/kg/min, N = 17",23.57 (14.578)
same,"Change from baseline in average weekly duration of symptomatic RP attacks, LS mean (SE)",[2]; N = 17,−267.49 (78.273) minutes
same,"Difference in change in weekly frequency of symptomatic RP attacks compared to placebo, significance",[2]; all analytical measures,not statistically significant
same,"Weekly frequency of symptomatic RP attacks, Baseline, Mean (SD)","[2]; baseline ePRO diary period (10 to 25 days) before treatment, N = 17",37.05 (18.643)
same,"Change in average Raynaud's Condition Score, difference compared to placebo",[2]; [3],not statistically significant
same,"Change in average worst symptoms (pain, numbness, tingling, discomfort) associated with symptomatic RP, difference compared to placebo",[2]; [3],not statistically significant
same,"Subject assessment of overall improvement using PGI-S and PGI-C, difference compared to placebo",[2]; [3],not statistically significant
same,"Average weekly duration of symptomatic RP attacks, Baseline, Mean (SD)","[2]; before treatment, N = 17",586.97 (584.577) minutes
same,"Average weekly duration of symptomatic RP attacks, LS mean difference in change vs placebo (SE)",[2]; iloprost vs placebo,−83.89 (107.728) minutes
same,"Subgroup comparison of prior vs after, LS mean difference in change (SE) of treatment difference",[2],−6.91 (8.121)
same,"Subgroup comparison of prior vs after, LS mean difference in change (SE) of treatment difference",[2]; listed as iloprost,-6.91 (8.121)
same,"Weekly frequency of symptomatic RP attacks, LS mean difference in change vs placebo (SE)",[2]; subgroup randomized after 3 Jun. 2019,2.04 (5.453)
same,"Change from baseline in weekly frequency of symptomatic RP attacks, LS mean (SE)",[2]; [4],−15.38 (4.082)
same,"Weekly frequency of symptomatic RP attacks, Double-blind endpoint, Mean (SD)",[2]; [4],23.73 (17.337)
same,"Weekly frequency of symptomatic RP attacks, Baseline, Mean (SD)","[2]; subgroup randomized after 3 Jun. 2019, N = 9, before treatment",37.23 (19.269)
same,"Weekly frequency of symptomatic RP attacks, LS mean difference in change vs placebo (SE)",[2]; subgroup randomized prior to 3 Jun. 2019,−4.87 (6.074)
same,"Weekly frequency of symptomatic RP attacks, LS mean difference in change vs placebo (SE)","[2]; subgroup randomized prior to 3 Jun. 2019, listed as iloprost",-4.87 (6.074)
same,"Change from baseline in weekly frequency of symptomatic RP attacks, LS mean (SE)",[2]; [5],−14.83 (4.180)
same,"Weekly frequency of symptomatic RP attacks, Double-blind endpoint, Mean (SD)",[2]; [5],23.39 (11.923)
same,"Weekly frequency of symptomatic RP attacks, Baseline, Mean (SD)","[2]; subgroup randomized prior to 3 Jun. 2019, n = 8, before treatment",36.85 (19.235)
